The source of these data is US9726664B2, “Animal model for diabetic complications” (NEDERLANDSE ORGANISATIE VOOR …, priority 2010, dated 2017).

Assay [1] concerns LDLr−/− mice. In words: Intervention study in LDLr−/− mice on 45 En % Lard diet: body weight and adipose depots. The following applies: for gonadal fat mass: drug mixed into diet from week 9 until week 16, FIG. 6. The assay is classed as in vivo. The protocol: Based on the findings of the above experiment, an intervention study was designed. The middle dose (45 En % lard diet) was defined to be the optimal diet to use for interventions with drugs since ALAT was not increased Thereby putative adverse liver effects of drugs can still be detected. Several anti-diabetic interventions (drugs and life-style) were tested according to the experimental set-up described above.
LDLr−/− mice (12 weeks old) were fed 45 En % Lard diet for 9 weeks to establish a prediabetic state (as described above and including visceral adiposity, hypertriglyceridemia, elevated glucose and insulin, chronic inflammation). After these 9 weeks, the interventions were started and continued until week 16. Drugs were mixed into lard diet and administered orally via the feed. One group of mice was sacrifice at the start of the intervention at week 9 for reference. Another control group was fed chow throughout the 16 weeks (serving as internal reference). The groups were as follows:
(§1) Body weight and food intake were measured regularly and blood samples were taken at t=0, t=6, t=9, t=12, t=14 and t=15 weeks. Spot urine was collected at t=0, t=8 and t=15 weeks. At the end of the study, the mice were sacrificed and the various organs were isolated and weighed and stored at −80 C and/or in formalin. Livers were processed for microarray analysis. More specifically, the same lobe of each liver was used for RNA extraction to prepare mRNA of microarray quality according to an established protocol (Kleemann et al., Genome Biology, 2007).

Assay [2] has as its system LDLr−/− mice. In words: Intervention study in LDLr−/− mice on 45 En % Lard diet: microalbuminuria (albumine/creatinine ratio in spot urine). The following applies: compared to high fat treated control animals not treated with drugs, ratio as μg albumine per mg creatinine, drug mixed into 45 En % Lard diet from week 9 until week 16, FIG. 7. The format is in vivo. How it is done:
Several anti-diabetic interventions (drugs and life-style) were tested according to the experimental set-up described above.
After these 9 weeks, the interventions were started and continued until week 16. Drugs were mixed into lard diet and administered orally via the feed. One group of mice was sacrifice at the start of the intervention at week 9 for reference. Another control group was fed chow throughout the 16 weeks (serving as internal reference). The groups were as follows:
as §1
Microalbuminuria is a hallmark of diabetic nephropathy and was determined by measuring the concentration of albumine and creatinine in spot urine collected at various time points during the experiment. Subsequently the albumine/creatinine ratio was calculated, viz. the amount of albumine expressed in μg per mg creatinine (FIG. 7).

`O=S(=O)(c1ccccc1)N(CC(F)(F)F)c1ccc(C(O)(C(F)(F)F)C(F)(F)F)cc1` [LXR agonist]: the gonadal fat mass entry in assay [1] was “lowered”. The body weight result in assay [1] (drug mixed into diet, orally via feed, from week 9 until week 16, FIG. 5) is “reduced”.

For `CC(C)c1c(C(=O)Nc2ccccc2)c(-c2ccccc2)c(-c2ccc(F)cc2)n1CC[C@@H](O)C[C@@H](O)CC(=O)O` [atorvastatin], the “albumine/creatinine ratio (microalbuminuria)” value (“albumine/creatinine ratio” below) in assay [2] was “significantly improved”.

For `COc1ccc(Cl)cc1C(=O)NCCc1ccc(S(=O)(=O)NC(=O)NC2CCCCC2)cc1` [glibenclamide, Glibenclamide], in assay [1], the gonadal fat mass entry is on record as “lowered”. For the same molecule, the “albumine/creatinine ratio” value in assay [2] is “significantly improved”.

For the molecule `CN(C)C(=N)N=C(N)N` [metformin], in assay [2], the “albumine/creatinine ratio” value is “significantly improved”.

With `O=C(O)c1ccccc1O` [salicylate], the gonadal fat mass result in assay [1] is given as “lowered”. The “albumine/creatinine ratio” value in assay [2] was “significantly improved”.
